From patent US8404869B2, “Phenanthrenequinone-based compound and pharmaceutical composition containing the same for the treatment or prevention of disease involving metabolic syndrome” (Mazence Inc., priority 2007, dated 2013)

Tests used:
[1] = tested on: C57BL/6JL Lep ob/Lep ob mice; assay: Weight loss effects in obese mice (ob/ob); format: in vivo; details: mixed-feed of 0.4% for 18 days; for Increase in BW / change in vivo at 0.4 % in feed: (Final BW−Initial BW)/Initial BW×100; for Final BW: ob/ob male mice; for change in vivo at 0.4 % in feed: Mus musculus, po, 432 h, read-out: Increase in BW
Procedure: (§1) 10-week-old C57BL/6JL Lep ob/Lep ob male mice having obesity characteristics and predisposition were purchased from Daehan Biolink Co., Ltd. (Chungchongbuk-do, Korea). Animals were raised in a breeding room maintained at a temperature of 23° C., 55% humidity, illumination of 300 to 500 lux, a 12-h light/dark (L/D) cycle, and ventilation of 10 to 18 times/hr. Animals were fed ad libitum pellets of Purina Rodent Laboratory Chow 5001 (purchased from Purina Mills Inc., St. Louis, Mo., USA) as a solid feed for experimental animals and tap water as drinking water. Mice were allowed to acclimate to new environment of the breeding room for two weeks and were then administered some pyrano-3,4-phenanthrenequinone or furano-3,4-naphthoquinone derivatives synthesized according to the present invention at mixed-feed of 0.4% for 18 days. Observation was made on changes in body weight, blood glucose and dietary intake, with respect to a time course of administration. After administration was complete, confirm changes in glucose, lipid and enzyme levels in blood.
(§2) For comparison, the same experiments were carried out for the subject (negative control group) to which the active ingredient was not administered, and subject (positive control group) to which Cryptotanshinone, extracted from Danshen by a method as set forth in Example 1 of the Korean Patent Application No. 2004-0116339 by the present applicant, was administered by the above-mentioned condition.
Herein, ‘Increase in BW’ is calculated as the following; Increase in BW=(Final BW−Initial BW)/Initial BW×100

AMPK = assay: Determination of AMPK activation in differentiated C2C12 myoblast cells (SAMS peptide, [γ-32P]ATP); format: cell-based; details: C2C12 myoblast cells treated at 5 μg/ml; DMSO (0.5%) control = 1
Procedure: Myoblast cells, C2C12, were cultured in DMEM containing 10% bovine calf serum. When a cell density reached a range of about 85% to 90%, the culture medium was replaced with a medium containing 1% bovine calf serum to induce differentiation of cells. The thus-differentiated myoblast cells were treated with samples synthesized in Examples 1 through 16 at a concentration of 5 μg/ml, and compared with a control group. Enzymatic activity of AMPK was determined as follows. Firstly, C2C12 cells were lysed to obtain protein extracts and then ammonium sulfate was added to a final concentration of 30%, thereby precipitating proteins. Protein precipitates were dissolved in a buffer (62.5 mM Hepes, pH 7.2, 62.5 mM NaCl, 62.5 mM NaF, 1.25 mM Na pyrophosphate, 1.25 mM EDTA, 1 mM DTT, 0.1 mM PMSF, and 200 μM AMP). Thereafter, 200 μM SAMS peptide (HMRSAMSGLHLVKRR: the underlined serine residue is a phosphorylation site, as an AMPK phosphorylation site of acetyl-CoA carboxylase) and [γ-32P]ATP were added thereto and reactants were reacted for 10 minutes at 30° C. This was followed by spotting of the resulting reaction solution on p81 phosphocellulose paper. The p81 paper was washed with a 3% phosphoric acid solution and radioactivity thereof was measured. For each reaction condition, reactions involving no SAMS peptide were also conducted and basic values were subtracted from the thus-observed values.

[2] = tested on: C57BL/6JL Lep ob/Lep ob mice; assay: Blood biomarkers (lipid, glucose, enzyme levels) in ob/ob mice; format: in vivo; design: unit not given here; details: after mixed-feed of 0.4% for 18 days
Procedure: as §1, §2

Compound	Final BW [1] [g]	AMPK fold (AMPK) [fold]	change in vivo at 0.4 % in feed [1] [%]	GOT [2]	GPT [2]	HDL chol [2]	LDL chol [2]	T. chol [2]	glucose [2]	triglyceride [2]	other results
CC1CC2=C(O1)c1ccc3c(c1C(=O)C2=O)CCCC3(C)C (single isomer, unassigned) [Example 2, 2,6,6-Trimethyl-1,2,6,7,8,9-hexahydro-phenanthro[1,2-b]furan-10,11-dione]	44.4 ± 3.4	2.4	–	–	–	–	–	–	–	–	Increase in BW [1]: −15.9%; GOT ([2]; listed as Ex. 2): 378.8; GPT ([2]; listed as Ex. 2): 215.0; HDL chol ([2]; listed as Ex. 2): 38.8; LDL chol ([2]; listed as Ex. 2): 21.67; T. chol ([2]; listed as Ex. 2): 125.0; glucose ([2]; listed as Ex. 2): 125; triglyceride ([2]; listed as Ex. 2): 58.8
CC1CC2=C(O1)c1ccc3c(c1C(=O)C2=O)CCCC3(C)C (single isomer, unassigned) [Example 3, 2,6,6-Trimethyl-1,2,6,7,8,9-hexahydro-phenanthro[1,2-b]furan-10,11-dione]	46.1 ± 2.1	2.2	–	–	–	–	–	–	–	–	Increase in BW [1]: −11.9%; GOT ([2]; listed as Ex. 3): 247.5; GPT ([2]; listed as Ex. 3): 160.0; HDL chol ([2]; listed as Ex. 3): 42.5; LDL chol ([2]; listed as Ex. 3): 12.00; T. chol ([2]; listed as Ex. 3): 134.0; glucose ([2]; listed as Ex. 3): 132; triglyceride ([2]; listed as Ex. 3): 61.7
CC1CC2=C(O1)c1ccc3c(c1C(=O)C2=O)CCCC3 (stereo not drawn) [Example 1, 2-Methyl-1,2,6,7,8,9-hexahydro-phenanthro[1,2-b]furan-10,11-dione]	45.3 ± 1.7	2.2	-14.2	233.3	118.8	42.5	13.00	141.7	120	81.7	–
CC1OC2=C(C(=O)C(=O)c3c2ccc2c3CCCC2(C)C)C1(C)C (stereo not drawn) [Example 4, 1,1,2,6,6-Pentamethyl-1,2,6,7,8,9-hexahydro-phenanthro[1,2-b]furan-10,11-dione]	48.6 ± 3.3	2.2	-7.1	476.7	285.0	45.0	10.00	127.5	128	76.7	–
CC1C2=C(OC1(C)C)c1ccc3c(c1C(=O)C2=O)CCCC3(C)C (stereo not drawn) [Example 5, 1,2,2,6,6-Pentamethyl-1,2,6,7,8,9-hexahydro-phenanthro[1,2-b]furan-10,11-dione]	47.9 ± 3.1	2.3	-7.8	377.5	251.0	45.5	14.05	126.5	141	77.0	–
CC1(C)CCC2=C(O1)c1ccc3c(c1C(=O)C2=O)CCCC3 [Example 6, 3,3-Dimethyl-2,3,7,8,9,10-hexahydro-1H-4-oxa-chrysene-11,12-dione]	49.0 ± 2.7	2.2	-6.3	392.5	250.0	49.0	13.00	129.5	145	69.5	–
CC1CC2=C(O1)c1ccc3ccccc3c1C(=O)C2=O (stereo not drawn) [Example 7, 2-Methyl-1,2-dihydro-phenanthro[1,2-b]furan-10,11-dione]	49.6 ± 2.6	2.2	-3.9	286.7	143.8	58.8	14.00	148.8	156	70.0	–
CC1OC2=C(C(=O)C(=O)c3c2ccc2ccccc32)C1(C)C (stereo not drawn) [Example 8, 1,1,2-Trimethyl-1,2-dihydro-phenanthro[1,2-b]furan-10,11-dione]	41.1 ± 1.3	2.5	-20.3	376.5	241.0	48.0	13.75	132.5	118	79.5	–
Cc1cc2c(c3ccccc13)C(=O)C(=O)C1=C2OC(C)C1 (stereo not drawn) [Example 9, 2,5-Dimethyl-1,2-dihydro-phenanthro[1,2-b]furan-10,11-dione]	48.9 ± 1.7	2.3	-6	355.0	77.0	48.0	11.00	135.0	136	72.0	–
Cc1cc2c(c3ccccc13)C(=O)C(=O)C1=C2OC(C)C1(C)C (stereo not drawn) [Example 10, 1,1,2,5-Tetramethyl-1,2-dihydro-phenanthro[1,2-b]furan-10,11-dione]	41.1 ± 1.3	2.4	-20.3	283.3	66.7	45.0	5.00	115.0	121	88.3	–
CC1CC2=C(O1)c1ccc3ccc(C(C)(C)C)cc3c1C(=O)C2=O (stereo not drawn) [Example 11, 8-tert-Butyl-2-methyl-1,2-dihydro-phenanthro[1,2-b]furan-10,11-dione]	52.2 ± 1.4	2.3	-1.2	347.5	197.5	47.5	9.95	134.0	175	82.0	–
CC1OC2=C(C(=O)C(=O)c3c2ccc2ccc(C(C)(C)C)cc32)C1(C)C (stereo not drawn) [Example 12, 8-tert-Butyl-1,1,2-trimethyl-1,2-dihydro-phenanthro[1,2-b]furan-10,11-dione]	48.3 ± 2.3	2.2	-6.9	355.0	77.0	48.0	11.00	135.0	153	69.0	–
CC1CC2=C(O1)c1ccc3ccc(Cl)cc3c1C(=O)C2=O (stereo not drawn) [Example 13, 8-Chloro-2-methyl-1,2-dihydro-phenanthro[1,2-b]furan-10,11-dione]	48.8 ± 2.5	2.3	-6.3	373.5	184.0	44.0	12.00	125.5	138	85.3	–
C[C@H]1COC2=C1C(=O)C(=O)c1c2ccc2c1CCCC2(C)C [Positive control group, Cryptotanshinone, reference compound]	51.6 ± 1.7	–	-1.2	255.0	149.0	48.0	11.0	135.0	–	100.9	–
